Test results as given in patent publication US7863449B2, “Modulators of muscarinic receptors” (Vertex Pharmaceuticals Incorporated, priority 2004, dated 2011).

Legend:
M4 muscarinic receptor = biological target: T1, M4 muscarinic receptor (Homo sapiens, UniProt P08173); test: Functional mobilization of intracellular calcium (FLIPR), M4-CHO cells; type: cell-based; conditions: for Emax: 100% efficacy is the maximum response obtained using Carbachol as a control; for M4 Activity: M4-CHO cells, FLIPR calcium mobilization
T1 construct: expressed in transfected cells; host or cells: CHO (M4-CHO)
T1 sequence (P08173 1-479): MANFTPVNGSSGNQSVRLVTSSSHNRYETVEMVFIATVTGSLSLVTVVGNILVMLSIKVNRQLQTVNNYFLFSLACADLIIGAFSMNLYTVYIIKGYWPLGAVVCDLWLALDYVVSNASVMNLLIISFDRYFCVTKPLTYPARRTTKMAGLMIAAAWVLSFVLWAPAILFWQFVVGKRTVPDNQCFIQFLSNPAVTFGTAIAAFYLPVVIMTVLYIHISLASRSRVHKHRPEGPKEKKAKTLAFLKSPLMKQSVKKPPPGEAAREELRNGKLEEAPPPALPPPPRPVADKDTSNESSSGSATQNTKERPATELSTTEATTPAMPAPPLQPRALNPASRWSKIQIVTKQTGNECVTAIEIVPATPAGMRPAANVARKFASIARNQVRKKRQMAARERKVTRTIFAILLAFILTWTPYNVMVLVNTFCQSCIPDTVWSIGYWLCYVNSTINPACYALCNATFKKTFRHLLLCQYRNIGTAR
Protocol: (§1) Functional Mobilization of Intracellular Calcium to Determine Muscarinic Receptor Activity:
(§2) CHO cells expressing muscarinic receptors (M1 to M5) are grown as monolayers in tissue culture flasks at 37° C. in a humidified atmosphere containing 5% CO2 and passaged every 3-5 days. The growth media is Dulbecco's modified eagles medium (DMEM, Gibco Cat# 12430-054), containing 25 mM Hepes and supplemented with Fetal Bovine Serum (Hyclone, cat# SH30071.03), 0.1 mM of MEM non-essential amino acids (GIBCO, Cat# 11140-050), 1 mM MEM Sodium Pyruvate (GIBCO Cat# 11360-070) and 100 units/ml of Penicillin G and 100 μg/ml of Streptomycin (GIBCO Cat# 15140-122). The recombinant muscarinic receptor cell lines are grown under antibiotic pressure with media containing 25 μg/ml zeocin and 500 μg/ml G418 (M1-CHO), 4 μg/ml puromycin, 50 μg/ml zeocin and 2.5 μg/ml blasticidin (M2 and M4-CHO) or 50 μg/ml zeocin and 4 μg/ml puromycin (M3 and M5-CHO).
(§3) Cells are harvested at 80-90% confluence using Versene (GIBCO Cat# 15040-066), collected by centrifugation and seeded 18-24 hrs prior to running the calcium assay at a density of 5,000-10,000 cells/well in […], clear-bottomed 384-well plates (BD Biocoat, poly-D-lysine, Cat#356663). The day of the experiment, the cells are washed with a plate washer (Bioteck Instruments, ELX 405) using bath1 buffer (140-mM NaCl, 4.5-mM KCl, 2-mM CaCl2, 1-mM MgCl2, 10-mM Hepes-Na, 10-mM Glucose, pH 7.4, with NaOH) containing 1 mM Probenecid. Next, the calcium dye Fluo-3 (25 μl/well of Fluo-3 AM at 4 μM, Molecular Probes F-1241, in Bath 1 buffer containing 1 mM Probenecid) is added to the 25 μl of Bath 1 remaining in each well after the plate wash and the dye is loaded at 37° C. in the tissue culture incubator for 60-90 min. The fluorescent dye is removed using the plate washer with Bath 1 containing 1 mM Probenecid, leaving 25 μl/well of this solution after the wash. Alternatively, cells can be loaded with the calcium indicator from Molecular Devices (Calcium 3 Assay Reagents, Cat # R7181) adding 5 μl of a 5× solution dye in Bath 1 containing 1 mM Probenecid (10 ml per dye flask cat# R7182 to generate a solution 20×) to 20 μl of the same buffer. After loading for 60 min, the experiment can be run without having to remove the dye.
(§4) Compounds are prepared at a 2× fold concentration in a 96-well plate (round bottom, Costar Corning cat# 3656), by reconstituting the pre-spotted compounds in bath 1 containing 1 mM probenecid. The final concentration DMSO is 0.5%, and the amount of DMSO is normalized across the assay plate. To determine an agonist action of the compounds on muscarinic receptors, the reconstituted compounds are added (25 μl compound/well) to the cell assay plate (containing 25 μl/well) using the multi-channel robotic system of the FLIPR 3 Instrument (Molecular Devices, Sunnyvale, Calif.). To determine a functional inhibitory action of the compounds on muscarinic receptors, the reconstituted compounds are added (25 μl compound/well) to the assay plate and pre-incubated for 15 min prior to adding 25 μl of Carbachol at 3× the EC80 for each muscarinic subtype. Alternatively, the compounds can be co-applied simultaneously with the agonist. In both assay modes, the fluorescence is recorded for 60 sec (excitation wavelength is […] and emission wavelength 540 nm) using the FLIPR 3 instrument.
(§5) The potency, efficacy and selectivity of the muscarinic compounds were evaluated by screening the compound activity across the whole family (M1 to M5 cells). Compounds were also screened for activity on other proteins such as other GPCRs and ion channels to determine selectivity on M4 receptors.

M1 muscarinic receptor = biological target: T2, M1 muscarinic receptor (Homo sapiens, UniProt P11229); test: Functional mobilization of intracellular calcium (FLIPR), M1-CHO cells; type: cell-based; conditions: for Emax: 100% efficacy is the maximum response obtained using Carbachol as a control; for M1 Activity: M1-CHO cells, FLIPR calcium mobilization
T2 construct: expressed in transfected cells; host or cells: CHO (M1-CHO)
T2 sequence (P11229 1-460): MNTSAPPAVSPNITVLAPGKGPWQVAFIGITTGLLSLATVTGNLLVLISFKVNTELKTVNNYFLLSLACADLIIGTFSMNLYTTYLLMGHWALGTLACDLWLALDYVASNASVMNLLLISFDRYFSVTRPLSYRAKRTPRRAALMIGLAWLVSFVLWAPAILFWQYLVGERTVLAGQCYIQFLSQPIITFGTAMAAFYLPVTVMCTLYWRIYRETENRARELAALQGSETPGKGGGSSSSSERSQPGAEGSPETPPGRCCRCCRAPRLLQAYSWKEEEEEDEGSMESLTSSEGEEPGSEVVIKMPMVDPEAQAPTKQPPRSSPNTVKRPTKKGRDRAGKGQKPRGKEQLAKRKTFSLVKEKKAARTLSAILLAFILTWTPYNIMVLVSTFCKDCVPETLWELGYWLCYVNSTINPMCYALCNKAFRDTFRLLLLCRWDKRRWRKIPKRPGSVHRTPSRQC
Protocol: as §1, §2, §3, §4, §5

| SMILES | Emax (M4 muscarinic receptor) [%] | M4 Activity (M4 muscarinic receptor) | Emax (M1 muscarinic receptor) [%] | M1 Activity (M1 muscarinic receptor) |
| --- | --- | --- | --- | --- |
| CCOC(=O)N1CCC(N2CCC3(CC2)CN(C(=O)NC(C)(C)C)Cc2ccccc23)CC1 [compound 53] | 25 to 100 | +++ (activity was measured to be less than 1.0 μM) | 25 to 100 | +++ (activity was measured to be less than 1.0 μM) |
| O=C1NC2(CCN(CC3CCCCC3)CC2)c2ccccc21 [compound 54] | 25 to 100 | + (activity was measured to be greater than 5.0 μM) | < 25 | + (activity was measured to be greater than 5.0 μM) |
| CCCCOC(=O)N1Cc2ccccc2C2(CCN(C3CCN(C(=O)OCC)CC3)CC2)C1 [compound 56] | 25 to 100 | +++ (activity was measured to be less than 1.0 μM) | 25 to 100 | +++ (activity was measured to be less than 1.0 μM) |
| CC(=O)N1Cc2ccccc2C2(CCN(CC3CCCCO3)CC2)C1 (centres unmarked) [compound 58] | < 25 | + (activity was measured to be greater than 5.0 μM) | < 25 | + (activity was measured to be greater than 5.0 μM) |
| CCC(=O)Oc1ccc(CN2CCC3(CC2)CN(C(C)=O)Cc2ccccc23)cc1 [compound 59] | < 25 | + (activity was measured to be greater than 5.0 μM) | < 25 | + (activity was measured to be greater than 5.0 μM) |
| CCCCNC(=O)N1Cc2ccccc2C2(CCN(C3CC4CCC(C3)N4C(=O)OCC)CC2)C1 (centres unmarked) [compound 61] | 25 to 100 | +++ (activity was measured to be less than 1.0 μM) | 25 to 100 | +++ (activity was measured to be less than 1.0 μM) |
| CCOC(=O)N1CCC(CN2CCC3(CC2)CN(C(=O)CC)Cc2ccccc23)CC1 [compound 63] | 25 to 100 | +++ (activity was measured to be less than 1.0 μM) | 25 to 100 | +++ (activity was measured to be less than 1.0 μM) |
| CCOC(=O)N1C2CCC1CC(N1CCC3(CC1)CN(C(=O)C1(C(F)(F)F)CC1)Cc1ccccc13)C2 (centres unmarked) [compound 64] | 25 to 100 | +++ (activity was measured to be less than 1.0 μM) | 25 to 100 | +++ (activity was measured to be less than 1.0 μM) |
| CC(=O)N1Cc2ccccc2C2(CCN(CC3=C(C)C=CCC3(C)C)CC2)C1 [compound 65] | 25 to 100 | + (activity was measured to be greater than 5.0 μM) | 25 to 100 | + (activity was measured to be greater than 5.0 μM) |
| COc1ccc(CN2CCC3(CC2)CN(C(C)=O)Cc2ccccc23)cc1 [compound 66] | < 25 | + (activity was measured to be greater than 5.0 μM) | < 25 | + (activity was measured to be greater than 5.0 μM) |
| CCOC(=O)N1C2CCC1CC(N1CCC3(CC1)CN(S(=O)(=O)c1ccc(OC(F)(F)F)cc1)Cc1ccccc13)C2 (centres unmarked) [compound 67] | 25 to 100 | +++ (activity was measured to be less than 1.0 μM) | 25 to 100 | ++ (activity was measured to be from 1.0 μM to 5.0 μM) |
| CCOC(=O)C1CCC(N2CCC3(CC2)CN(C(C)=O)Cc2ccccc23)CC1 (centres unmarked) [compound 68] | 25 to 100 | +++ (activity was measured to be less than 1.0 μM) | 25 to 100 | +++ (activity was measured to be less than 1.0 μM) |
| CCOC(=O)N1C2CCC1CC(N1CCC3(CC1)CN(S(=O)(=O)c1ccccc1Cl)Cc1ccccc13)C2 (centres unmarked) [compound 69] | 25 to 100 | +++ (activity was measured to be less than 1.0 μM) | 25 to 100 | +++ (activity was measured to be less than 1.0 μM) |
| CCOC(=O)N1CCC(CN2CCC3(CC2)CN(S(C)(=O)=O)Cc2ccccc23)CC1 [compound 70] | 25 to 100 | +++ (activity was measured to be less than 1.0 μM) | 25 to 100 | +++ (activity was measured to be less than 1.0 μM) |
| CCOC(=O)N1C2CCC1CC(N1CCC3(CC1)CN(C(=O)c1ccc(F)cc1)Cc1ccccc13)C2 (centres unmarked) [compound 71] | < 25 | + (activity was measured to be greater than 5.0 μM) | 25 to 100 | +++ (activity was measured to be less than 1.0 μM) |
| CCOC(=O)N1CCC(CN2CCC3(CC2)CN(C(=O)Oc2ccc(F)cc2)Cc2ccccc23)CC1 [compound 72] | 25 to 100 | +++ (activity was measured to be less than 1.0 μM) | 25 to 100 | +++ (activity was measured to be less than 1.0 μM) |
| CCOC(=O)N1C2CCC1CC(N1CCC3(CC1)CN(C(=O)OCCOC)Cc1ccccc13)C2 (centres unmarked) [compound 73] | 25 to 100 | +++ (activity was measured to be less than 1.0 μM) | 25 to 100 | +++ (activity was measured to be less than 1.0 μM) |
| COC(=O)N1CCC(CN2CCC3(CC2)CN(C(C)=O)Cc2ccccc23)CC1 [compound 74] | 25 to 100 | +++ (activity was measured to be less than 1.0 μM) | 25 to 100 | +++ (activity was measured to be less than 1.0 μM) |
| CC(=O)CN1CCC2(CC1)CN(C(C)=O)Cc1ccccc12 [compound 78] | 25 to 100 | + (activity was measured to be greater than 5.0 μM) | 25 to 100 | + (activity was measured to be greater than 5.0 μM) |
| CCOC(=O)N1CCC(CN2CCC3(CC2)CN(C(=O)c2cc4ccccc4s2)Cc2ccccc23)CC1 [compound 80] | 25 to 100 | +++ (activity was measured to be less than 1.0 μM) | 25 to 100 | +++ (activity was measured to be less than 1.0 μM) |
